Data taken from patent publication US12558326B2, “Method for treating epilepsy” (Xenon Pharmaceuticals Inc., priority 2018, dated 2026).
Several values for one entry are separate records, joined by “and”; a condition that tells them apart may be missing. Equal entries are not always repeated.

Tests used:
CF-1 mice = test: 6 Hz seizure test (44 mA, 3 sec, corneal electrodes) in vivo; set-up: species or system mouse; settings: 20 mg/kg IP; for percentage of animals protected against psychomotor seizures: one hour before assay, 6 Hz 44 mA, n=16 per group
From the text: This assay tests the ability of a test compound to block a psychomotor seizure induced by long-duration, low frequency (6 Hz) stimulation, and provides an art-accepted model of therapy-resistant partial seizure (Brown et al., 1953 J. Pharmacol. Exp. Therapeut. 107(3):273-283; White H S, Woodhead J H, Wilcox K S, General principles: discovery and preclinical development of antiepileptic drugs, In: Levy R H, Mattson R H, Meldrum B S, Perucca E, editors. Antiepileptic drugs 5th ed Philadelphia: Lippincott Williams & Wilkins; 2002. pp. 36-48; Hartman et al., 2008 Epilepsia 49(2):334-339).
Methods. Adult male CF1 mice (18-25 g) are pretreated intraperitoneally (i.p.) with the test compound at a dose of 20-100 mg/kg. If toxicity is noted in a pre-test screen for toxic effects when the test compound is administered i.p. at varying dosages, the dose is modified to avoid overt toxic effects. Each treatment group (n=4-16 mice/group) is examined for anticonvulsive effects at one or more of five time points (¼, ½, 1, 2, and 4 hr) after treatment with the test compound. Following pretreatment, each mouse receives a drop of 0.5% tetracaine hydrochloride applied to each eye. The mouse is then challenged with low-frequency (6 Hz) stimulation for 3 sec delivered through corneal electrodes. The low-frequency, long-duration stimuli are initially delivered at 32 mA intensity. Animals are manually restrained and released immediately following the stimulation and observed for the presence or absence of seizure activity. If the test compound is effective in the 32 mA screen, an additional assay is performed in which the stimulation current is increased to 44 mA but otherwise using the same protocol as described above. For dose-response studies, an n of 8 mice is used per dose and a dose-response curve is generated at the time of peak effect (TPE) at the specific stimulation intensity.
Typically, the 6 Hz stimulation results in a seizure characterized by a minimal clonic phase that is followed by stereotyped, automatistic behaviors, including jaw clonus, forelimb clonus, twitching of the vibrissae, and/or Straub-tail. Animals not displaying such behaviors are considered protected. Seizure score can be used as an additional measure of the efficacy of the investigational compound (Racine, R. J. 1972 Electroencephalogr. Clin. Neurophysiol. 32(3):281-294). Data are analyzed by Mann-Whitney U test, with p<0.05 determined to be statistically significant. For data obtained at each time point, results are expressed as the total number of animals protected out of the number of animals tested over time (e.g., 2/4 represents 2 out of 4 mice tested are protected).
In this Example, the in vivo anticonvulsant effects of candidate AEDs were tested in mice using the 6 Hz seizure test. The 6 Hz seizure test was performed essentially as described above in Biological Example 2, with minor modifications as presented here, including data collection at a time point that was one hour after administration of the candidate AEDs.
Compounds: Candidate AED compounds were prepared as described above unless otherwise noted, and were as follows: • Racemic fenfluramine ([rac]-fenfluramine hydrochloride); • (R)-fenfluramine ([R]-(−)-fenfluramine hydrochloride); • Racemic norfenfluramine ([rac]-norfenfluramine) was purchased from Toronto Research Chemicals, North York, Ontario, Canada; • (R)-norfenfluramine ([R]-(−)-norfenfluramine.
Animals: Adult male CF-1 albino mice (25-35 g) purchased from Harlan-Envigo (East Millstone, NJ). The mice were housed four per cage and had access to filtered water and chow ad libitum, throughout the experiment.
Compound Preparation and Administration: All four compounds were solubilized in sterile aqueous saline solution (0.9% NaCl). Compounds were administered to animals (16 mice in each treatment group) via intraperitoneal (IP) injection at 10 ml/kg volume, one hour prior to the assay. Control animals received vehicle (saline) only. […]

[1] = Brain and plasma distribution after the 6 Hz assay (UHPLC-ESI-MS/MS); assay type: in vivo, mouse; settings: 20 mg/kg IP, total concentration, sampled immediately after 6 Hz assay (one hour post dose)
Protocol: Pharmacological distribution and bioanalysis. Immediately following characterization of seizure behaviors in the 6 Hz assay, animals were humanely sacrificed and brain and plasma samples were collected for analysis of the distribution of the administered compounds to these tissue compartments.
Brain sample homogenization. Pre-weighed whole mouse brains were thawed and 1 mL of deionized water and 1 mL of acetonitrile were added to each sample vial containing brain tissue. The samples were homogenized using a hand-held Omni™ TH homogenizer (Omni International, Kennesaw, GA, USA) until a uniform slurry was obtained. 1 mL aliquots of the slurry were transferred to clean 1.5 mL plastic Eppendorf tubes and the tubes were centrifuged at 13,000 rpm (15,871×g) for 20 minutes. The supernatant was collected and stored in clean labelled plastic Eppendorf vials at −80° C.
Mouse plasma and brain homogenate sample preparation. Mouse brain homogenates and mouse plasma samples, as well as calibration standards and QC samples prepared from control (“blank”) untreated mouse plasma, were extracted by protein precipitation. Briefly, 50 μL of each brain homogenate and mouse plasma sample (as well as each calibration standard, QC sample and blank mouse plasma sample) was mixed with 50 μL of internal standard solution [a 2,500 ng/mL solution of (S)-5-((1-benzylpyrrolidin-3-yl)(methyl)amino)-6-methyl-N-(thiazol-4-yl)pyridine-2-sulfonamide in deionized water/acetonitrile (1:1 v/v)], followed by addition of 50 μL of 6% (v/v) phosphoric acid in water. This was followed by the addition of 200 μL of acetonitrile. The samples were vortexed for 30 seconds and then centrifuged for 20 min at 13,000 rpm (15,871×g). The supernatants were further diluted four-fold with acetonitrile:water (1:1 v/v) and transferred to a 96-well plate prior to analysis. Calibration and QC samples were prepared in blank K2EDTA mouse plasma in the concentration range from 2.3 ng/mL to 4800 ng/mL with QC samples, including low QC (14 ng/mL), mid QC (225 ng/mL), and high QC (3600 ng/mL).
UHPLC-ESI-MS/MS analysis. Samples were then analyzed by ultra-high pressure liquid chromatography/electrospray ionization tandem mass spectroscopy (UHPLC-ESI MS/MS) using a Sciex™ TQ-5500 (AB Sciex™ LP, Concord, ON, Canada) mass spectrometer equipped with a Shimadzu Nexera™ UHPLC pump, column compartment and auto-sampler (Shimadzu Scientific Instruments, Inc., Columbia, MD, USA), using a binary gradient elution starting with 80% water (A)/20% acetonitrile (B), both solvents containing 0.1% formic acid. After 0.6 minutes, mobile phase B was increased linearly to 100% to 1 minute and elution was maintained at 100% mobile phase B until 1.5 minutes, and then allowed to re-equilibrate at the initial ration of 80% mobile phase A and 20% mobile phase B for a total run time of 2.5 minutes at a flow rate of 0.4 mL/min. The column used was ACE Excel™ 2 C18-PFP (2.1 mm i.d.×[…], 2 μm particle size)(Advanced Chromatography Technologies Ltd, Aberdeen, Scotland). The analytes and the internal standard were ionized by electrospray in the positive ion mode and detected by multiple reaction monitoring (MRM) using the transitions listed in Table 1.

5-HT2A receptor = 5-HT2A receptor (Homo sapiens, UniProt P28223); settings: Rothman et al. 2002, 2003; cited from earlier work
Chain of 5-HT2A receptor (P28223 whole entry): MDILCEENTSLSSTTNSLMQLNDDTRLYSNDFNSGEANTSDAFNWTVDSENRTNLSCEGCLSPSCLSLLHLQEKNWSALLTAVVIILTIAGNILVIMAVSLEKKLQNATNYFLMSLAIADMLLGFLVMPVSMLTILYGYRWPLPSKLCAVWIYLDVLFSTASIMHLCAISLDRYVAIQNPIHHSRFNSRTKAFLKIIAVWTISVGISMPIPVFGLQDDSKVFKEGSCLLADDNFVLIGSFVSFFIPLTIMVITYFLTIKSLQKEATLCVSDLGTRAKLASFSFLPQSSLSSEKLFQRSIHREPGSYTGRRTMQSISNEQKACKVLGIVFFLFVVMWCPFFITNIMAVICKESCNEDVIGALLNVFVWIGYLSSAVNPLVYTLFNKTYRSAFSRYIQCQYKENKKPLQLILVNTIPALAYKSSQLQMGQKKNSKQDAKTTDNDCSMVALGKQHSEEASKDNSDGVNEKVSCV

5-HT2C receptor = target: T1, 5-HT2C receptor (Homo sapiens, UniProt P28335); settings: Rothman et al. 2002, 2003; cited from earlier work
T1 sequence (P28335 33-458): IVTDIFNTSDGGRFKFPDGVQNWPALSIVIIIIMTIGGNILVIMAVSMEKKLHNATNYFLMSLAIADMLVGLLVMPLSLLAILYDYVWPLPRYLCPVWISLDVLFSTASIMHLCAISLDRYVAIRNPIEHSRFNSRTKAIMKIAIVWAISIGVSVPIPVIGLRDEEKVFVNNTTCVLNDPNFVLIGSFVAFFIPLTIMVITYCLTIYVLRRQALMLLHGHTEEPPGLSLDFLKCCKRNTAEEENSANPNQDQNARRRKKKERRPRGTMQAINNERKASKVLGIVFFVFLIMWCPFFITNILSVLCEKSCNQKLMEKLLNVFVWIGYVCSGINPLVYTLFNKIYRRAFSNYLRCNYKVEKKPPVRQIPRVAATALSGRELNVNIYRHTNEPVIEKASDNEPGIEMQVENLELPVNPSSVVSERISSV

5-HT2B receptor = 5-HT2B receptor (Homo sapiens, UniProt P41595); settings: Rothman et al. 2002, 2003; cited from earlier work
Chain of 5-HT2B receptor (P41595 whole entry): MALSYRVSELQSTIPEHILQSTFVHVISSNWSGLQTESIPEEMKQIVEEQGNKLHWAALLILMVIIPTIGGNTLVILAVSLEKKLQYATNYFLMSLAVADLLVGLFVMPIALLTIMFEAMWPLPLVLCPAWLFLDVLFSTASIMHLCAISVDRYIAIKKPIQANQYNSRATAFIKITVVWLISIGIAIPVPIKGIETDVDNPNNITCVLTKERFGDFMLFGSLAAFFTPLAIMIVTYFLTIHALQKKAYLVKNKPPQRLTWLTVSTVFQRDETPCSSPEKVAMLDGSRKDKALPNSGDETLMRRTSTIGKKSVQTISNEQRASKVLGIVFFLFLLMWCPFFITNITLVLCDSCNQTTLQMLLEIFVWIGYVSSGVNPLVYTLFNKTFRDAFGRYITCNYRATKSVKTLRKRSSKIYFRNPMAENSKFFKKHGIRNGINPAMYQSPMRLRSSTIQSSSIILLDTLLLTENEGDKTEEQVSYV

[2] = system: norepinephrine (NE) release; settings: Rothman et al. 2002, 2003; cited from earlier work
DBA/2 mice = test: Audiogenic seizure test in DBA/2 mice; assay type: in vivo, mouse; settings: 180 mg/kg IP, 30 min prior
Protocol: DBA/2 is a widely used inbred strain of mouse susceptible to audiogenic seizures due to the asp2 mutation. […] The objective of this study was to evaluate the anticonvulsant activity of (R/S)-fenfluramine and to compare it to (R)-fenfluramine in the DBA/2 mouse.
The method follows that described by Dilrmuiller et al., Neuroreport 4(6):683-686. Mice (DBA/2, 3-4 weeks old) were individually transferred (at 3-5 minute intervals) from the preparation room into an adjacent experimental room and placed in a Plexiglas™ jar (Diameter=40 cm; Height=35 cm) mounted with an electric bell (110-120 dB). Upon activating the bell, the occurrences and latencies to wild running fits, clonic and tonic seizures were measured. The number of deaths was also recorded. An audiogenic response score was assigned to each mouse as 0 (no seizure), 1 (wild running), 2 (clonic convulsion), 3 (tonic extension), or 4 (death). The bell was activated until a tonic seizure occurred or for a maximum of 60 seconds. Ten (10) mice were studied per group. The test was performed blind. All test compounds were dissolved in 0.9% saline (vehicle) and were administered by intraperitoneal (IP) injection at a dose volume of 10 mL/kg. Vehicle alone, (R/S)-fenfluramine (15 or 30 mg/kg) or (R)-fenfluramine (30 mg/kg) were administered 60 minutes prior to seizure induction. The positive reference compound (valproate; 180 mg/kg) was administered 30 minutes prior to seizure induction.

6 Hz model = settings: 30 min after i.p. injection; cited from earlier work
MES test = settings: in vivo; cited from earlier work

## CC(N)Cc1cccc(C(F)(F)F)c1 (racemic) [(rac)-norfenfluramine, (R/S)-1-(3-(trifluoromethyl)phenyl)propan-2-amine]
CF-1 mice
  percentage of animals protected against psychomotor seizures: 50%
CF-1 mice; summary statement
  protective activity against seizures in the 6 Hz psychomotor seizure assay: exhibited protective activity against seizures
[1]
  Brain concentration: 151.2 μM and 30718 ng/g
  Plasma concentration: 12.97 μM and 2636 ng/g

## C[C@@H](N)Cc1cccc(C(F)(F)F)c1 [(R)-norfenfluramine, (R)-1-(3-(trifluoromethyl)phenyl)propan-2-amine]
CF-1 mice
  percentage of animals protected against psychomotor seizures: 50%
[1]
  Brain concentration: 179.6 μM and 36501 ng/g
  Plasma concentration: 17.73 μM and 3604 ng/g

## C[C@H](N)Cc1cccc(C(F)(F)F)c1 [(S)-norfenfluramine, (S)-1-((3-trifluoromethyl)phenyl)propan-2-amine]
5-HT2A receptor
  5-HT2A agonist activity: potent
5-HT2C receptor
  5-HT2C agonist activity: potent
5-HT2B receptor
  5-HT2B agonist activity: potent
[2]
  NE release-promoting activity: potent

## CCCC(CCC)C(=O)O [Valproate]
DBA/2 mice; n=10
  Clonic Convulsion Incidence: 0%
  Tonic Extension Incidence: 0%
  Wild Running Incidence: 40%
DBA/2 mice; mean ± SEM, maximum 60 s
  Clonic Convulsion Latency: 60.0 ± 0.0 s
  Tonic Extension Latency: 60.0 ± 0.0 s
  Wild Running Latency: 38.1 ± 9.0 s
DBA/2 mice; score 0-4, mean ± SEM, n=10
  Audiogenic Response Score: 0.4 ± 0.16

## CC[C@@H](C(N)=O)N1CCCC1=O [levetiracetam]
6 Hz model
  ED50: 19 mg/kg
MES test
  efficacy in the MES test: ineffective
